{
  "source": "paper PMC5833389",
  "about": "(Oncogenesis, 2018)",
  "key": {"FER": {"target": "T1, FER (Homo sapiens, UniProt P16591)", "T1 construct": "purchased Invitrogen/Life Technologies", "T1 sequence (P16591 whole entry)": "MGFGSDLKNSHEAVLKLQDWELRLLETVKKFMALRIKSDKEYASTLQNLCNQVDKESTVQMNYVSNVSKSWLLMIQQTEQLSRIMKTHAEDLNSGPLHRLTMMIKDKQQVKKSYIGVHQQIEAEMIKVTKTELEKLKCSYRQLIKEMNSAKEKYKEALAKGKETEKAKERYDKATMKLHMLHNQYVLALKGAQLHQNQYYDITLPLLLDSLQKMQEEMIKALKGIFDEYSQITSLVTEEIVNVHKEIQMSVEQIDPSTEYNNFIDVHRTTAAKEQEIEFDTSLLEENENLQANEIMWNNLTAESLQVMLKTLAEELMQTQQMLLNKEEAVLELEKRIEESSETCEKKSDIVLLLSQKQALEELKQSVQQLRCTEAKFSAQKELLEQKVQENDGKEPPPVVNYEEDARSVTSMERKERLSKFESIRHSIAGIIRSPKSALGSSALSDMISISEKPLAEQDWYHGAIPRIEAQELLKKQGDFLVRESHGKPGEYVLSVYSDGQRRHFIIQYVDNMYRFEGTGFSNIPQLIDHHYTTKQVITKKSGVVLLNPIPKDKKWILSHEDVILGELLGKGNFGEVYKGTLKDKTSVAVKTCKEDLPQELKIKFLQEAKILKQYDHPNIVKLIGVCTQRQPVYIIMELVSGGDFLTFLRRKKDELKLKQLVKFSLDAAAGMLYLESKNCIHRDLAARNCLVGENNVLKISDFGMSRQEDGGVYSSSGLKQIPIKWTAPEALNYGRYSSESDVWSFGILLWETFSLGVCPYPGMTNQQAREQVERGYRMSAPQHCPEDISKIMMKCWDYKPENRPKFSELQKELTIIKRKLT", "experiment": "FER kinase assay, Z'-LYTE", "type": "biochemical", "procedure": "(§1) IC50 values on FAK and PYK2 were determined using the DELFIA® format, using kinase proteins obtained from Invitrogen (#PV3832, #PV4567) and biotinylated poly(Glu,Tyr) as substrate. Incubation in the presence of test compound was followed by detection of phosphorylated substrate using streptavidin-coated plates and Eu-N1 anti-phospho-Tyr PT66 antibody (#AD0040, VICTOR™ reader, both Perkin Elmer). Data were analyzed using GraphPad Prism. […] Data was fitted by iterative calculation using a sigmoidal curve analysis with variable Hill slope. In independent assays, IC50 values were determined using Z'-LYTE® technology, which is based on FRET (Invitrogen/Life Technologies). Selectivity was determined on the Invitrogen kinase panel at 1 µmol/L."}, "[1]": {"experiment": "Tolerability of daily oral dosing in nude mice", "type": "in vivo", "details": "daily oral doses of 50 mg/kg"}, "PTK2B/PYK2 [2]": {"target": "T2, PTK2B/PYK2 (Homo sapiens, UniProt Q14289)", "T2 construct": "purchased Invitrogen/Life Technologies", "T2 sequence (Q14289 whole entry)": "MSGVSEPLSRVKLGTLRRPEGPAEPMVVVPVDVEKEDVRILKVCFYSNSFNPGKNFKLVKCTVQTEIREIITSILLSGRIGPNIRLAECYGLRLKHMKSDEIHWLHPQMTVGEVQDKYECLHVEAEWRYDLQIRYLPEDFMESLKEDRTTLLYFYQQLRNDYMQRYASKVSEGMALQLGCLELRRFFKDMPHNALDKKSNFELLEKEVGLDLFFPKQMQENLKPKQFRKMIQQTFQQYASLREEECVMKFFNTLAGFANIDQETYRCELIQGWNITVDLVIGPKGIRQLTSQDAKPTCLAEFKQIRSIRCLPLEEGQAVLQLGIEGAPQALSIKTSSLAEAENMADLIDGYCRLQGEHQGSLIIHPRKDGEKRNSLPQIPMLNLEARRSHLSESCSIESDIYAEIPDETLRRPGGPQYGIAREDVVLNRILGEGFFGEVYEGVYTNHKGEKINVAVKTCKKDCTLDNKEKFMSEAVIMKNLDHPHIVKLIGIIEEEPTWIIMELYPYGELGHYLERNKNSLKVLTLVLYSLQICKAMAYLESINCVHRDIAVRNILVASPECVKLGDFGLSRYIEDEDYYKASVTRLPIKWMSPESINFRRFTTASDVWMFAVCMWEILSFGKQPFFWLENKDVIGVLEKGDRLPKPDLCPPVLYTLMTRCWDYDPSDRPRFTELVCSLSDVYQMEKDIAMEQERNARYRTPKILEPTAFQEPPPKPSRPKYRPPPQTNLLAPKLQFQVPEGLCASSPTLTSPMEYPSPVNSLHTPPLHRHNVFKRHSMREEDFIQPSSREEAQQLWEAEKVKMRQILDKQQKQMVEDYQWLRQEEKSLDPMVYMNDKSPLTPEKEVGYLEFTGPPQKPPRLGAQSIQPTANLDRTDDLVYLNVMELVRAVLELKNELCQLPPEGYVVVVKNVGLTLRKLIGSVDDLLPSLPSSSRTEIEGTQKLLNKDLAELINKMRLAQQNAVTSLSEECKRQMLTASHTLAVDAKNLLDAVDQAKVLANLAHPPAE", "experiment": "PYK2 kinase assay, DELFIA format", "type": "biochemical", "procedure": "as §1, with “Technologies).” for “Technologies). Selectivity was determined on the Invitrogen kinase panel at 1 µmol/L.”"}, "PC-3 cells [3]": {"tested_on": "PC-3 cells", "experiment": "Clonogenic assay in soft agar (anchorage-independent growth)", "type": "cell-based, human", "details": "Homo sapiens, PC-3, alamarBlue, read-out: Colony formation EC50 PC-3", "procedure": "Clonogenic assays were performed using agarose-containing media. Cells were incubated at 37 °C and 5% CO2 for 14 days. alamarBlue® was used to detect colonies of viable cells (530 nm/590 nm). Data analysis was performed as described above."}, "[4]": {"experiment": "Single-dose pharmacokinetics in nude mice", "type": "in vivo", "source_text": "(§2) Plasma and homogenized tumor samples were extracted and analyzed by LC-MS. Detection was at unit resolution with a MRM 589.2/474.8. All calibration and QC samples were with ±20% (p.o.) and ±30% (i.v.) of the nominal value in the linear range of the calibration fitted with a linear regression and 1/x^2 weighting."}, "PTK2B/PYK2 [5]": {"target": "T2, PTK2B/PYK2", "experiment": "PYK2 kinase assay, Z'-LYTE (FRET)", "type": "biochemical", "procedure": "as §1, with “Technologies).” for “Technologies). Selectivity was determined on the Invitrogen kinase panel at 1 µmol/L.”"}, "[6]": {"experiment": "Drug concentrations in plasma and tumor of PC-3 tumor-bearing mice", "type": "in vivo", "details": "BomTac:NMRI-Foxn1^nu, mouse; for concentration at 24 h: oral", "source_text": "as §2"}, "PC-3": {"tested_on": "PC-3", "experiment": "Cancer cell line panel, 2D proliferation (Eurofins Panlabs)", "type": "cell-based, human", "details": "PC-3, 2D culture, 72 h", "procedure": "(§3) Drug sensitivity of a panel of human cancer cell lines was tested at Eurofins Panlabs (Bothell, WA, USA). Cells were treated for 72 h, fixed and stained with diaminophenylindole to visualize nuclei and the fluorescence intensity of each well was measured (GE Healthcare IN Cell Analyzer 1000). Relative cell proliferation in compound-treated cultures (signal as percent of control, “POC”) was calculated as follows: POC (t = 72 h) = 100 × fluorescence (compound wells) / fluorescence (control wells). In addition, for each compound-treated culture, the cell count after incubation for 72 h (POC [t = 72 h]) was related to the count at start of treatment (POC [t = 0 h]): POC [t = 0 h] = 100 × fluorescence at t = 0 [control wells]/fluorescence at t = 72 h [control wells]). To calculate concentration–response curves, POC data were analyzed using a four-parameter log-logistic function without upper or lower limitation."}, "[7]": {"tested_on": "Calu-6 lung adenocarcinoma cells", "experiment": "Cancer cell line panel, 2D proliferation (Eurofins Panlabs)", "type": "cell-based, human", "details": "Calu-6, 2D culture, 72 h", "procedure": "as §3"}, "[8]": {"tested_on": "panel of 243 cancer cell lines", "experiment": "Cancer cell line panel, 2D proliferation (Eurofins Panlabs)", "type": "cell-based, human", "details": "2D culture", "procedure": "as §3"}, "PC-3 cells [9]": {"tested_on": "PC-3 cells", "experiment": "Proliferation assay, adherent monolayer, alamarBlue", "type": "cell-based, human", "details": "Homo sapiens, PC-3, adherent monolayers", "procedure": "PC-3 cells were incubated with compounds for 5 days at 37 °C/5% CO2, stained with alamarBlue® and fluorescence was determined (544 nm/590 nm). Data were analyzed as described above."}, "NCI-H2110 lung xenograft": {"tested_on": "NCI-H2110 lung xenograft", "experiment": "Subcutaneous xenograft efficacy", "type": "in vivo, mice", "procedure": "Statistical evaluation was performed using SAS 8.2 (SAS Institute, Cary, NC, USA) and Proc StatXact (Cytel Software, Cambridge, MA, USA).\nwhere Td and Cd denote the median of the tumor volume in the treatment group and the control group at day d, respectively. A one-sided increasing Wilcoxon test was applied to compare each experimental group with the vehicle control, the p values were adjusted for multiple comparisons according to Bonferroni–Holm. The level of significance was fixed at α = 5%. An adjusted p value of <0.05 was considered to show a significant difference between groups."}, "[10]": {"details": "clinical trials NCT01905111 and NCT01335269; cited from earlier work"}, "PAK7": {"target": "T3, PAK7 (Homo sapiens, UniProt Q9P286)", "T3 construct": "purchased Invitrogen/Life Technologies", "T3 sequence (Q9P286 whole entry)": "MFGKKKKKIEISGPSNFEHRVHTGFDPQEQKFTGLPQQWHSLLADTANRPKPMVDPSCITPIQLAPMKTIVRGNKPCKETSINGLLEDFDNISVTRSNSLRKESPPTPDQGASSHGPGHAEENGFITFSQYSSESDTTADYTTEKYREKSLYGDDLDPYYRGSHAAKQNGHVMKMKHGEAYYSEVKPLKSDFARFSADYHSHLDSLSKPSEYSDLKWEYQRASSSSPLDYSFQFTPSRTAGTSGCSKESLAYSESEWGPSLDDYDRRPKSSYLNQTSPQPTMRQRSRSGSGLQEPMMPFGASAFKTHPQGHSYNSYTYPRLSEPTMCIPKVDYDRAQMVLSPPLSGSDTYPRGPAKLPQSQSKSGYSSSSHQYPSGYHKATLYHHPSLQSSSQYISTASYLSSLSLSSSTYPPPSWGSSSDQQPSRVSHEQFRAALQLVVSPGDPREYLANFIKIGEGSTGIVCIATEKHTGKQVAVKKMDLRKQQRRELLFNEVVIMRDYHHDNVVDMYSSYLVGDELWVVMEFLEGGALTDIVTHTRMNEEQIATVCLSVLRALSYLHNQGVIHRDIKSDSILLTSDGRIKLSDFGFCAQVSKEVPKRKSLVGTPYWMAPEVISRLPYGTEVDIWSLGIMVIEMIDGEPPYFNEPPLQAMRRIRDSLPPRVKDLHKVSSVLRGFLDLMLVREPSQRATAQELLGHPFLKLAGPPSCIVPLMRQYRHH", "experiment": "PAK7 kinase assay, Z'-LYTE", "type": "biochemical", "procedure": "as §1"}, "[11]": {"details": "female, BomTac:NMRI-Foxn1^nu, mouse, plasma, single oral dose 50 mg/kg"}},
  "note": "Like-named read-outs stand apart in the source and are kept apart here.",
  "data": [
    {"compound": "COc1cc(C(=O)NC2CCN(C)CC2)c(F)cc1Nc1ncc(C(F)(F)F)c(Oc2cccc3c2C(=O)N(C)C3)n1", "note": "[BI 853520]", "values": [
      {"measurement": "IC50", "setting": "FER", "result": 903, "unit": "nM"},
      {"measurement": "tolerability (body weight gain, clinical signs)", "setting": "[1]", "result": "well tolerated"},
      {"measurement": "IC50", "setting": "PTK2B/PYK2 [2]", "result": "> 50000", "unit": "nM"},
      {"measurement": "EC50", "setting": "PC-3 cells [3]", "result": 3, "unit": "nM"},
      {"measurement": "clearance", "setting": "[4]; BomTac:NMRI-Foxn1^nu, mouse, plasma, single intravenous dose 5 mg/kg, female nude mice", "result": 36, "unit": "mL/min/kg"},
      {"measurement": "MRT", "setting": "[4]; BomTac:NMRI-Foxn1^nu, mouse, plasma, single intravenous dose 5 mg/kg, female nude mice, read-out: mean residence time", "result": 3, "unit": "h"},
      {"measurement": "Vd", "setting": "[4]; BomTac:NMRI-Foxn1^nu, mouse, plasma, single intravenous dose 5 mg/kg, female nude mice, read-out: volume of distribution", "result": 6.6, "unit": "L/kg"},
      {"measurement": "bioavailability", "setting": "[4]; [11]", "result": 90, "unit": "%"},
      {"measurement": "half-life", "setting": "[4]; [11]", "result": 5, "unit": "h"},
      {"measurement": "Tmax", "setting": "[4]; female, BomTac:NMRI-Foxn1^nu, mouse, single oral dose 50 mg/kg, plasma, read-out: time of maximal concentration", "result": 2, "unit": "h"},
      {"measurement": "AUC", "setting": "[4]; single oral dose 50 mg/kg", "result": 46, "unit": "µM·h"},
      {"measurement": "maximal concentration", "setting": "[4]; single oral dose 50 mg/kg, plasma", "result": 4.4, "unit": "µmol/L"},
      {"measurement": "IC50", "setting": "PTK2B/PYK2 [5]", "result": 2000, "unit": "nM"},
      {"measurement": "concentration at 24 h", "setting": "[6]; PC-3 tumor tissue, 50 mg/kg p.o. qdx4, 24 h after dose on day 4, PC-3 tumors, read-out: concentration in tumor tissue", "result": 8.9, "unit": "µM"},
      {"measurement": "Tmax", "setting": "[6]; PC-3 tumor tissue, po, 50 mg/kg p.o. qdx4, day 4, PC-3 tumors, read-out: time of peak level in tumor tissue", "result": 6, "unit": "h"},
      {"measurement": "concentration at 24 h", "setting": "[6]; plasma, 50 mg/kg p.o. qdx4, 24 h after dose on day 4, read-out: plasma level", "result": 1.3, "unit": "µM"},
      {"measurement": "EC50", "setting": "PC-3; Homo sapiens", "result": 10, "unit": "nM"},
      {"measurement": "maximal inhibition of proliferation", "setting": "PC-3", "result": 20, "unit": "%"},
      {"measurement": "maximal inhibition of proliferation", "setting": "[7]", "result": 40, "unit": "%"},
      {"measurement": "EC50", "setting": "[7]; Homo sapiens", "result": 3, "unit": "nM"},
      {"measurement": "EC50", "setting": "[8]; Homo sapiens, few cell lines with interpretable sigmoid curves", "result": "3 to 30", "unit": "nM"},
      {"measurement": "effect on proliferation, vast majority of cell lines", "setting": "[8]; concentrations as high as 1 µmol/L", "result": "not affected"},
      {"measurement": "maximal inhibition of proliferation", "setting": "[8]; few cell lines with interpretable sigmoid curves", "result": "20–30%"},
      {"measurement": "EC50", "setting": "PC-3 cells [9]", "result": "> 3000", "unit": "nM"},
      {"measurement": "Sensitivity", "setting": "NCI-H2110 lung xenograft", "result": "moderately sensitive (“moderately sensitive” for statistically significant TGI values of 57–83%)"},
      {"measurement": "oral bioavailability in patients", "setting": "[10]", "result": "orally bioavailable"},
      {"measurement": "safety profile in patients", "setting": "[10]", "result": "favorable safety profile"},
      {"measurement": "IC50", "setting": "PAK7", "result": "> 10000", "unit": "nM"}
    ]}
  ]
}
